Drawing on ChEMBL document CHEMBL4483862, “Open-source discovery of chemical leads for next-generation chemoprotective antimalarials” (2018), this text covers IC50 and IC90 for 41 compounds.

The assay deals with Plasmodium berghei. Description: Luciferase/luciferin-expressing antifolate-resistant parasites were used to infect a culture of HepG2 cells that were pre-incubated with compounds. Infected hepatocytes emit light due to the luciferase reaction. Assay results are presented as the percent inhibition of light emission compared to control. […]. It counts as functional. Conditions: sporozoite; for IC90: read-out: LUCIFERASE INFECTION ASSAY - IC90.

Where [1] appears, read: read-out: LUCIFERASE INFECTION ASSAY - IC50.

For the compound `Nc1ccc(NC2=C(Cl)C(=O)c3ccccc3C2=O)cc1`, the IC90 is 5.78 µM. In addition, the IC50 (FFLUC_HILL_SLOPE 16.7, FFLUC_R_SQUARED 0.273, HEPG2TOX_HILL_SLOPE 2.85, HEPG2TOX_R_SQUARED 0.992, PBLUC_HILL_SLOPE 8.6, PBLUC_R_SQUARED 0.505, read-out: LUCIFERASE INFECTION ASSAY - IC50) stood at 4.48 µM.
With `CCCCn1c(CSc2ccccn2)cn(-c2nnc(C(C)(C)C)s2)c1=O`, the IC90 was above 8.18 µM. Also, under setting [1], the IC50 is above 8.18 µM.
On to `CN1/C(=C/C=C2c3ccccc3-c3ccccc32)C=Cc2ccccc21`, for which the IC90 is above 9.9 µM. Moreover, under “PBLUC_HILL_SLOPE 1.22, PBLUC_R_SQUARED 0.219, read-out: LUCIFERASE INFECTION ASSAY - IC50”, the IC50 turned out to be 8.03 µM.
As to `O=C(/C=C/c1cccc([N+](=O)[O-])c1)c1cccc(N2CCCC2=O)c1`, the IC90 amounted to 4.73 µM. Also, the IC50 (HEPG2TOX_HILL_SLOPE 11.8, HEPG2TOX_R_SQUARED 0.912, PBLUC_HILL_SLOPE 14.2, PBLUC_R_SQUARED 0.853, read-out: LUCIFERASE INFECTION ASSAY - IC50) is 4.05 µM.
For the compound `Cn1ncc2c(ON=C(N)c3ccc(C(C)(C)C)cc3)ncnc21`, the IC90 came out at 9.41 µM. Also, under “HEPG2TOX_HILL_SLOPE 12.1, HEPG2TOX_R_SQUARED 0.899, PBLUC_HILL_SLOPE 18.6, PBLUC_R_SQUARED 0.286, read-out: LUCIFERASE INFECTION ASSAY - IC50”, the IC50 was found to be 8.36 µM.
For `CCO/C=N\C1=C(C#N)C(c2ccc(OC)cc2)c2ccc3ccccc3c2O1` (configuration not stated), the IC90 is above 8.58 µM. Moreover, where the note is “HEPG2TOX_HILL_SLOPE 1.86, HEPG2TOX_R_SQUARED 0.624, read-out: LUCIFERASE INFECTION ASSAY - IC50”, the IC50 is above 8.58 µM.
As to `N#Cc1ccc(CN2CCCN(c3ncnc4sccc34)CC2)cc1`, the IC90 was above 10 µM. Under setting [1], the IC50 came to 1.67 µM.
The matching figures for `Clc1ccc(CNc2ncc3c(n2)CCN(Cc2ccccc2)C3)cc1Cl`: above 8.26 µM and above 8.26 µM.
The matching figures for `CC1(C(=O)NC2CCN(S(C)(=O)=O)CC2)CC1(Cl)Cl` (configuration not stated): above 10 µM and above 10 µM.
On to `O=C(COC(=O)c1ccc2ccccc2c1)c1cc2c3c(c1)CC(=O)N3CCC2`, for which the IC90 is above 10 µM. The IC50 (FFLUC_HILL_SLOPE 2.44, FFLUC_R_SQUARED 0.438, read-out: LUCIFERASE INFECTION ASSAY - IC50) was above 10 µM.
On to `Clc1nc(NCc2ccc3c(c2)OCO3)c2[nH]cnc2n1`, for which the IC90 was above 10.9 µM. The IC50 (PBLUC_HILL_SLOPE 2.33, PBLUC_R_SQUARED 0.359, read-out: LUCIFERASE INFECTION ASSAY - IC50) was 9.8 µM.
Take `C=CCSc1nnc(-c2ccc(C(C)(C)C)cc2)n1-c1ccc(Cl)cc1`: the IC90 was above 8.59 µM. In addition, the IC50 (PBLUC_HILL_SLOPE 0.788, PBLUC_R_SQUARED 0.735, read-out: LUCIFERASE INFECTION ASSAY - IC50) was above 8.59 µM.
As to `Cc1ccc(N2C(=O)C=CC2=O)cc1C`, the IC90 worked out at 12.2 µM. Further, the IC50 under setting [1] was found to be 6.57 µM.
Regarding `CC[n+]1c(/C=C/c2ccc(SC)cc2)ccc2ccccc21`, the IC90 is above 7.62 µM. For the same compound, for the setting “PBLUC_HILL_SLOPE 11.6, PBLUC_R_SQUARED 0.0577, read-out: LUCIFERASE INFECTION ASSAY - IC50”, the IC50 was above 7.62 µM.
`CCOc1cc(-c2nccc3cc(OC)c(OC)cc23)cc(OCC)c1OCC` [OCTAVERINE]: the 90% effect concentration (IC90) was 8.02 µM. Also, the IC50 (PBLUC_HILL_SLOPE 10.1, PBLUC_R_SQUARED 0.35, read-out: LUCIFERASE INFECTION ASSAY - IC50) came out at 6.45 µM.
`Cn1cc(/C=C/C(=O)c2ccc(-c3ccc(F)cc3)s2)cn1`: the IC90 is above 10 µM. Moreover, the IC50 under setting [1] is above 10 µM.
As to `O=C(NNc1ccccc1)c1cccs1`, the IC90 amounted to 7.33 µM. For the same compound, the IC50 (HEPG2TOX_HILL_SLOPE 91.6, HEPG2TOX_R_SQUARED 0.623, PBLUC_HILL_SLOPE 5.23, PBLUC_R_SQUARED 0.266, read-out: LUCIFERASE INFECTION ASSAY - IC50) stood at 4.82 µM.
For the compound `COc1ccc(C(=O)Nc2nc3ccccc3[nH]2)cc1`, the IC90 was above 10 µM. For the same compound, under “HEPG2TOX_HILL_SLOPE 4.46, HEPG2TOX_R_SQUARED 0.552, PBLUC_HILL_SLOPE 2.95, PBLUC_R_SQUARED 0.511, read-out: LUCIFERASE INFECTION ASSAY - IC50”, the IC50 amounted to 7.58 µM.
For `CN(C)CCNC(=O)c1ccc(-c2cn3c(-c4ccc5c(ccn5C)c4)cnc3cn2)cc1`, the IC90 is above 7.53 µM. The IC50 (PBLUC_HILL_SLOPE 3.24, PBLUC_R_SQUARED 0.242, read-out: LUCIFERASE INFECTION ASSAY - IC50) is above 7.53 µM.
As to `O=C(Nc1ccc(Cl)cc1)OCc1nccn1Cc1ccc(Cl)cc1`, the IC90 is above 8.77 µM. In addition, where the note is “PBLUC_HILL_SLOPE 0.184, PBLUC_R_SQUARED 0.0602, read-out: LUCIFERASE INFECTION ASSAY - IC50”, the IC50 was above 8.77 µM.
Consider `O=C(NC(CN1CCCC1)c1ccccc1)c1ccc(N2CCCC2=O)cc1` (configuration not stated), for which the IC90 is above 10 µM. For the same compound, the IC50 (HEPG2TOX_HILL_SLOPE 1.34, HEPG2TOX_R_SQUARED 0.227, PBLUC_HILL_SLOPE 0.905, PBLUC_R_SQUARED 0.0409, read-out: LUCIFERASE INFECTION ASSAY - IC50) is above 10 µM.
Consider `Cc1cc(Cl)c(C)c(S(=O)(=O)Nc2ccccc2N2CCN(C)CC2)c1Cl`, for which the IC90 is above 10 µM. Also, where the note is “FFLUC_HILL_SLOPE 13.7, FFLUC_R_SQUARED 0.171, read-out: LUCIFERASE INFECTION ASSAY - IC50”, the IC50 is above 10 µM.
Turning to `CCOC(=O)c1[nH]c2cc(OC)c(OC)cc2c1NC(=O)c1ccccc1OC`, the IC90 is above 8.28 µM. For the setting “PBLUC_HILL_SLOPE 12.7, PBLUC_R_SQUARED 0.193, read-out: LUCIFERASE INFECTION ASSAY - IC50”, the IC50 came to 8.06 µM.
For the compound `COc1cc(OC)cc(-c2cnc3cnc(-c4cccc(OC(C)C)c4)cn23)c1`, the concentration for an effect of 90% (IC90) is above 8.47 µM. In addition, the IC50 (PBLUC_HILL_SLOPE 3.99, PBLUC_R_SQUARED 0.348, read-out: LUCIFERASE INFECTION ASSAY - IC50) was 6.48 µM.
On to `CC(C)c1ccc(C(NCC(=O)NC(=O)NC2CCCC2)c2cccs2)cc1` (configuration not stated), for which the IC90 was above 10 µM. Further, under setting [1], the IC50 was above 10 µM.
Turning to `CSc1nccc(-c2ccc(S(=O)(=O)n3nc(C)c([N+](=O)[O-])c3C)s2)n1`, the IC90 is above 8.02 µM. The half-inhibitory concentration (IC50) under setting [1] is above 8.02 µM.
On to `Cc1cc(C)c(NC(=O)CNC(=O)c2ccc(-c3ccccc3)cc2)c(C)c1`, for which the IC90 is above 10 µM. For the same compound, where the note is “PBLUC_HILL_SLOPE 11.6, PBLUC_R_SQUARED 0.0183, read-out: LUCIFERASE INFECTION ASSAY - IC50”, the IC50 is above 10 µM.
Consider `COc1ccc(C2Sc3ccccc3N=C3C2=C(O)c2ccccc23)cc1` (configuration not stated), for which the IC90 is 1.84 µM. Also, the IC50 (PBLUC_HILL_SLOPE 1.48, PBLUC_R_SQUARED 0.746, read-out: LUCIFERASE INFECTION ASSAY - IC50) was determined as 0.42 µM.
Take `Cc1nc(-c2ccccn2)nc(NCCc2ccccc2)c1Cl`: the IC90 was found to be 5.38 µM. In addition, where the note is “PBLUC_HILL_SLOPE 7.11, PBLUC_R_SQUARED 0.141, read-out: LUCIFERASE INFECTION ASSAY - IC50”, the IC50 came to 3.95 µM.
For the compound `CCN(Cc1ccc2c(c1)OCCO2)C(=O)C1CCN(c2ncnc3sc(C)c(C)c23)CC1`, the IC90 was above 10 µM. Moreover, the IC50 under setting [1] was above 10 µM.
With `Cc1ccc(S(=O)(=O)c2ccc(-c3ccccc3)cc2)cc1`, the IC90 is above 10.7 µM. Under setting [1], the IC50 was above 10.7 µM.
Turning to `CCOC(=O)NNC(=S)Nc1ccccc1OC`, the IC90 was above 12.3 µM. For the same compound, under setting [1], the IC50 was above 12.3 µM.
On to `O=C(Cc1ccccc1)OC1(C(F)(F)F)C(=O)Nc2c1ccc1ccccc21` (configuration not stated), for which the IC90 was above 10 µM. Under setting [1], the IC50 was above 10 µM.
Turning to `CC(=O)N/C(=C\c1ccccc1)C(=O)OCc1ncc(-c2ccccc2)o1`, the IC90 is above 10 µM. The IC50 under setting [1] was above 10 µM.
`Cc1c(C(=O)Nc2cccc(S(=O)(=O)N(C)C)c2)cnn1-c1ccc(=O)[nH]n1`: the IC90 is above 10 µM. Under setting [1], the IC50 was above 10 µM.
On to `C=CCN(c1cccc(C(F)(F)F)c1)S(=O)(=O)c1cc(C(=O)Nc2ccc3c(c2)CCC3)ccc1Cl`, for which the IC90 is above 10 µM. Further, the IC50 under setting [1] is above 10 µM.
Consider `Cc1ccc2c(Cl)cc(Cl)c(OCC(=O)N(C(C)C)C(C)C)c2n1`, for which the IC90 was above 10 µM. For the same compound, the IC50 (PBLUC_HILL_SLOPE 0.984, PBLUC_R_SQUARED 0.0595, read-out: LUCIFERASE INFECTION ASSAY - IC50) was above 10 µM.
Consider `Cc1cc2oc(=O)cc(COC(=O)c3ccccc3NCCO)c2cc1C`, for which the IC90 worked out at 5.07 µM. Under “HEPG2TOX_HILL_SLOPE 8.75, HEPG2TOX_R_SQUARED 0.762, PBLUC_HILL_SLOPE 95.5, PBLUC_R_SQUARED 0.164, read-out: LUCIFERASE INFECTION ASSAY - IC50”, the IC50 was 4.95 µM.
Consider `COc1ccc(NC(=O)Nc2cccc(C(F)(F)F)c2)cc1`, for which the IC90 was above 10.6 µM. Besides, the IC50 under setting [1] was above 10.6 µM.
Regarding `N#Cc1c(N2CCCC(O)C2)nc(N)c2c(N)nc3c(c12)CC(=O)N3C12CC3CC(CC(C3)C1)C2` (configuration not stated), the IC90 is above 10 µM. For the same compound, the IC50 (HEPG2TOX_HILL_SLOPE 8.91, HEPG2TOX_R_SQUARED 0.422, PBLUC_HILL_SLOPE 4.43, PBLUC_R_SQUARED 0.134, read-out: LUCIFERASE INFECTION ASSAY - IC50) is 6.8 µM.
For `Cc1cc(C)nc(-n2[nH]c(C)c(Cc3ccc(C(C)(C)C)cc3)c2=O)n1`, the IC90 was above 9.42 µM. For the same compound, the IC50 (PBLUC_HILL_SLOPE 0.924, PBLUC_R_SQUARED 0.378, read-out: LUCIFERASE INFECTION ASSAY - IC50) was 1.03 µM.
